Data on one compound can be found in paper PMC5085999, “Structural Basis for Differences in Dynamics Induced by Leu Versus Ile Residues in the CD Loop of Kir Channels” (Molecular Neurobiology, 2015).

Residue numbers refer to the chain shown, from its start.

Holding throughout (experiment): inside-out macropatch dose-response of channel expressed in Xenopus oocytes
Holding throughout (type): cell-based

Experiment [1] addresses T1, Kir2.1 (Mus musculus, UniProt P35561).
T1 construct: gene Kcnj2
T1 sequence (P35561 1-428): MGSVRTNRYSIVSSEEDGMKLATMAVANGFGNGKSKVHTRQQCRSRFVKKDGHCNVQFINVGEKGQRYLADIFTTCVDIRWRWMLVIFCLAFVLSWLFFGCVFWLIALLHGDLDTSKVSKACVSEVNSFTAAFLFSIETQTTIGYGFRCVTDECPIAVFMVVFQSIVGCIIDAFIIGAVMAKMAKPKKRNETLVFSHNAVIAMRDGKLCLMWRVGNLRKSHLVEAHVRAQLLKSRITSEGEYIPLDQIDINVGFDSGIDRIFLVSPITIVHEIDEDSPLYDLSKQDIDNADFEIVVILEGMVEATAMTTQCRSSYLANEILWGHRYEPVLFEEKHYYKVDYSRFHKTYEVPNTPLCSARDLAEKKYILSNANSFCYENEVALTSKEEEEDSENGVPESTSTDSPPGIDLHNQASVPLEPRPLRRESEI

Experiment [2] has as its target T2, Kir2.2 (Homo sapiens, UniProt Q14500).
T2 construct: gene KCNJ12
T2 sequence (Q14500 1-433): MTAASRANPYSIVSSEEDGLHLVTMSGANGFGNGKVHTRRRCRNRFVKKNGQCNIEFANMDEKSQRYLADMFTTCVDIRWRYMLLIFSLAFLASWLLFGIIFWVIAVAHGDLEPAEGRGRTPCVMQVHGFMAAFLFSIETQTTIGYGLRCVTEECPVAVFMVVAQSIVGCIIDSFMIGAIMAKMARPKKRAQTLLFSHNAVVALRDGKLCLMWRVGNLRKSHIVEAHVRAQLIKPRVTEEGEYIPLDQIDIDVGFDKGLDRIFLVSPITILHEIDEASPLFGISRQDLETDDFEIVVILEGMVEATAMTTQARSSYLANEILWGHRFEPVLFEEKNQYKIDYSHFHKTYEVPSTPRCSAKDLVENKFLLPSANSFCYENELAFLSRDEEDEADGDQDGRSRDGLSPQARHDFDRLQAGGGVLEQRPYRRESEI

The target of experiment [3] is T3, Kir2.2 (Homo sapiens, UniProt Q14500, I223L).
T3 construct: gene KCNJ12
T3 sequence (Q14500 1-433 I223L): T2 sequence (Q14500 1-433) with I223L

Experiment [4] has as its target T4, Kir2.1 (Mus musculus, UniProt P35561, L222I).
T4 construct: gene Kcnj2
T4 sequence (P35561 1-428 L222I): T1 sequence (P35561 1-428) with L222I

A word on the EC50: it is the concentration at which the effect is half-maximal.

Regarding `CCCCCCCC(=O)OC[C@H](COP(=O)(O)O[C@@H]1[C@H](O)[C@H](O)[C@@H](OP(=O)(O)O)[C@H](OP(=O)(O)O)[C@H]1O)OC(=O)CCCCCCC` [diC8 PIP2], the EC50 was determined as 2.89 ± 0.31 µM in experiment [1], 6.14 ± 0.45 µM in experiment [2], 1.9 ± 0.23 µM in experiment [3] and 14 ± 0.98 µM in experiment [4].
